Test results: PMC2939961 (Journal of neurochemistry, 2010)
Structures can show the parent of a compound that is named as a salt.

Assays:
[1] = biological target: T1, OSTα-OSTβ (organic solute transporter, OSTα subunit) (Homo sapiens, UniProt Q86UW1+Q86UW2); conditions: read-out: % inhibition at 500 μM
T1 sequence (Q86UW1 1-340): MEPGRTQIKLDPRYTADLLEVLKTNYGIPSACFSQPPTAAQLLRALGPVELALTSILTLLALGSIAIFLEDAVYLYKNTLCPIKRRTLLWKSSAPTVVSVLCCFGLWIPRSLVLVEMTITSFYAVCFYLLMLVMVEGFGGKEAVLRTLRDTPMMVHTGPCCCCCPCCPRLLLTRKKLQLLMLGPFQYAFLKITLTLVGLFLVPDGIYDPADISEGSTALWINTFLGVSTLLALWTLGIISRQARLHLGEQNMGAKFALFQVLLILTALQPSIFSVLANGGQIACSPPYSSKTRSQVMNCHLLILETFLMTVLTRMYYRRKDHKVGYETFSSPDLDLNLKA
T1 sequence (Q86UW2 1-128): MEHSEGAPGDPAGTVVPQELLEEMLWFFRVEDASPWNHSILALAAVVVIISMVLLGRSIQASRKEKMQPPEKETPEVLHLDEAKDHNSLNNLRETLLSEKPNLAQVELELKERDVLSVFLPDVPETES

[2] = biological target: T2, Ostα-Ostβ (organic solute transporter, Ostα subunit) (Mus musculus, UniProt Q80WK2+Q8R000); conditions: read-out: % inhibition at 500 μM
T2 sequence (Q8R000 1-340): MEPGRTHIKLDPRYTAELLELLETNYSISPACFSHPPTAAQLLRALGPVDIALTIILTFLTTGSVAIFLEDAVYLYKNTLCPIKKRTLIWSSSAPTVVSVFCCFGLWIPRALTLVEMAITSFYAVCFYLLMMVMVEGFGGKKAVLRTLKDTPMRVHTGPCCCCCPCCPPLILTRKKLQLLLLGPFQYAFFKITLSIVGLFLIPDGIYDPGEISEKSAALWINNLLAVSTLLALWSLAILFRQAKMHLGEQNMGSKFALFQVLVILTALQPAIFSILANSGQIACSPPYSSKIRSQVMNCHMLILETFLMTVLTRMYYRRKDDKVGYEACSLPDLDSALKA
T2 sequence (Q80WK2 1-128): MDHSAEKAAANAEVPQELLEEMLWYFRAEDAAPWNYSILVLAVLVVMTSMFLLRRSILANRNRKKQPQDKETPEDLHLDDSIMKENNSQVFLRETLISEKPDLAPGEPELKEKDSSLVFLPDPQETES

Structure (SMILES)	inhibition at 500 µM [1] [%]	inhibition at 500 µM [2] [%]
C[C@]12CC[C@@H](OS(=O)(=O)O)C[C@@H]1CC[C@@H]1[C@@H]2CC[C@]2(C)C(=O)CC[C@@H]12 [Androsterone sulfate]	~65	~65
CC(=O)[C@H]1CC[C@H]2[C@@H]3CC=C4C[C@@H](OS(=O)(=O)O)CC[C@]4(C)[C@H]3CC[C@]12C [PREGS, pregnenolone sulfate]		~65
